What is called solubility is the concentration that dissolves in the medium under given conditions.

The results in this text go back to patent US20140065212A1, “COATED PHARMACEUTICAL COMPOSITION CONTAINING REGORAFENIB” (Bayer Healthcare LLC, priority 2012, published 2014).

The nature of the series: thermodynamic solubility of regorafenib monohydrate in different solvents. To be noted: thermodynamic from solid. Format: physicochemical. The text has this: Furthermore salts of the compound of formula (I) such as its hydrochloride, mesylate and phenylsulfonate are mentioned in WO 2005/009961. The monohydrate of the compound of formula (I) is mentioned in WO 2008/043446. An improved process for the manufacturing of regorafenib in high purity is described in WO 2011/128261. Due to the limited solubility of regorafenib monohydrate (see table 1) an applicable pharmaceutical composition containing regorafenib is in form of a solid dispersion as described in WO 2006/026500.

As for `CNC(=O)c1cc(Oc2ccc(NC(=O)Nc3ccc(Cl)c(C(F)(F)F)c3)c(F)c2)ccn1` [regorafenib monohydrate], the solubility (aqueous with cosolvent or surfactant or cyclodextrin, solvent: HPβ-Cyclodextrin/water (10:90)) was < 100 µg/mL; the solubility (aqueous with cosolvent or surfactant or cyclodextrin, solvent: PEG 400/water (30:70)) came to 270 µg/mL; the solubility (light liquid paraffin, oil or lipid, solvent: Ligth liquid paraffin) is < 100 µg/mL; the solubility (oil or lipid, solvent: Oleoylpolyethylenglycol glycerides) is 3600 µg/mL; the solubility (organic solvent or mixture, solvent: Ethanol) worked out at 6400 µg/mL; the solubility (organic solvent or mixture, solvent: Polyethylenglycol (PEG) 400) was determined as 67300 µg/mL. Besides, for the setting “solvent: Water”, the solubility was < 100 µg/mL.
